According to US20240279298A1 (BEIJING TUO JIE BIOPHARMACEUTICAL CO. LTD., priority 2021, published 2024):
pEC50: −log10 of the molar value. Where a SMILES comes first, the peptide text is derived from it. [ ]: non-standard residue; d: D form. Aib = CC(C)(N)C(=O)O

Key:
human GIPR = biological target: T1, human GIPR (Homo sapiens, UniProt P48546); assay: Agonist activity assay for GIPR (cAMP HTRF); type: cell-based
T1 construct: expressed in transfected cells
T1 sequence (P48546 22-466): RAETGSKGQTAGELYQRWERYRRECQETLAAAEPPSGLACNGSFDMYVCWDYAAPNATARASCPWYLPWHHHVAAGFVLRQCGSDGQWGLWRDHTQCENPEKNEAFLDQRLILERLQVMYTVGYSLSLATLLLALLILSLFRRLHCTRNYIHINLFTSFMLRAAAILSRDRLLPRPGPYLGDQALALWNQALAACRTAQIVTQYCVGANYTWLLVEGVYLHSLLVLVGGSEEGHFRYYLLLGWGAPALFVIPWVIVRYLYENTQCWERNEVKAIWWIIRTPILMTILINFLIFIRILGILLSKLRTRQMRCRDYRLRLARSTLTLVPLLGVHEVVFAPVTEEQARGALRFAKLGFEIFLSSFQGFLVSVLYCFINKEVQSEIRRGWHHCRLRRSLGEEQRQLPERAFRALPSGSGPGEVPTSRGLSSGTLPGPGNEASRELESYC
Protocol: (§1) The activation of GCGR by related compounds will stimulate the formation of cyclic adenosine monophosphate (cAMP) in cells. Thus, the receptor activity can be monitored by cAMP production in proper cells expressing the receptor.
(§2) Agonist activity assay for GCGR: Cryopreserved stable CHO-K1/GCGR/CRE-Luc cells were taken from a liquid nitrogen tank, thawed in a 37° C. water bath, resuspended in DMEM/F12 medium (Sigma Cat #D8437), centrifuged, and seeded into T75 culture flasks. The cells were passaged at least once for subsequent tests. Before testing, the cells were trypsinized, centrifuged, washed once, and resuspended in serum-free DMEM/F12 medium. The cell density was adjusted, and the cells were plated in a 96-well plate at a density of 2,500 cells/5 μL/well. A 1×buffer solution in Cisbio-cAMP-Gs Dynamic kit was prepared, and IBMX was added at a final concentration of 0.5 mM. 5 μL of polypeptide serially diluted by buffer was added into each well, and the plate was shaken gently for mixing and incubated for 30 minutes at 37° C. cAMP-d2 and Anti-cAMP-Eu^3+-Cryptate were 20-fold diluted with cAMP Lysis and detection buffer respectively and mixed well. 5 μL of diluted cAMP-d2 solution and 5 μL of diluted Anti-cAMP-Eu^3+-Cryptate solution were sequentially added into each well. The mixture was mixed well by moderate vibration, and incubated for 1 hour at room temperature away from light.
Agonist activity assay for GIPR: The method differed from the method described above for the agonist activity assay for GCGR in that a stable CHO-K1/GIPR cell line was used, and the cell density was 3,000 cells/5 μL/well.

[1] = Maximum solubility in phosphate buffer pH 7.4; type: physicochemical; settings: phosphate buffer pH 7.4, room temperature
human GLP-1R = biological target: T2, human GLP-1R (Homo sapiens, UniProt P43220); assay: Agonist activity assay for GLP-1R (cAMP HTRF); type: cell-based
T2 construct: expressed in transfected cells
Protocol: as §1, §2
Agonist activity assay for GLP-1R: The method differed from the method described above for the agonist activity assay for GCGR in that a stable CHO-GLP-1R cell line was used.

[2] = biological target: T3, human glucagon receptor (GCGR) (Homo sapiens, UniProt P47871); assay: Agonist activity assay for GCGR (cAMP HTRF); type: cell-based; settings: normalized by the activity of the native glucagon
T3 construct: expressed in transfected cells
Protocol: The activation of GCGR by related compounds will stimulate the formation of cyclic adenosine monophosphate (cAMP) in cells. Thus, the receptor activity can be monitored by cAMP production in proper cells expressing the receptor. […] The cells were passaged at least once for subsequent tests. Before testing, the cells were trypsinized, centrifuged, washed once, and resuspended in serum-free DMEM/F12 medium. The cell density was adjusted, and the cells were plated in a 96-well plate at a density of 2,500 cells/5 μL/well. […] The mixture was mixed well by moderate vibration, and incubated for 1 hour at room temperature away from light.

human liver microsomes = assay: Stability in human liver microsome incubation system
in vitro [3] = settings: human
[4] = Chemical stability in phosphate buffer (UPLC purity); type: physicochemical; settings: phosphate buffer pH 7.4, 1 mg/mL
[5] = tested on: rat erythrocyte suspension; assay: Hemolysis assay; settings: for Hemolysis rate: 37° C., 1 hour
[6] = tested on: insulin-induced hypoglycemia rat model; assay: Efficacy in insulin-induced hypoglycemic rat model; type: in vivo, SD rats; settings: insulin 0.65 IU/kg at T0; 12 nmol/kg subcutaneous at 45 min
[7] = Pharmacokinetics in rats after subcutaneous injection; type: in vivo, SD rats; settings: plasma
Protocol: (1) Animals were grouped according to Table 12, and were given free access to water and food before administration.
• Sampling time: 0 min pre-dose, and 2 min, 4 min, 7 min, 10 min, 20 min, 40 min, 1 h and 2 h post-dose. Blood was collected from rats by jugular catheterization.
• 1) 0.2 mL of whole blood was collected at each time point into a centrifuge tube containing EDTA-K2; • 2) The blood samples were centrifuged at 4000 g at 4° C. for 5 min, and separated to give the plasma; • 3) The plasma samples were cryopreserved at −80° C.
The mixture was vortexed for 5 min and centrifuged at a low temperature for 10 min. 100 μL of the supernatant was taken and added to 100 μL of 0.1% formic acid aqueous solution. The mixture was mixed well, and loaded on the instrument for analysis; • Liquid chromatography and mass spectrometry analysis: LC-30A liquid chromatography system (Shimadzu, Japan) and API 5500 liquid chromatography-triple quadrupole mass spectrometer (Analyst Software data processing system, AB Sciex, USA) were used. The chromatographic column was nanomicro Unisil C18aq (4.6 mm×150 mm, 5 μm) chromatographic column; the column temperature was 40° C.; the mobile phase A was 0.1% formic acid aqueous solution, and the mobile phase B was 0.1% formic acid in acetonitrile; the flow rate was 0.5 mL/min; the injection volume was 20 μL; the gradient is shown in Table 13 below. The mass spectrum was obtained using an electrospray ionization (ESI) source, a positive ion analysis mode and a multi reaction monitoring (MRM) scanning mode.
The plasma concentration of the test compounds was measured by HPLC-MS/MS. The plasma concentration-time curve was plotted, and the pharmacokinetic parameters were calculated by PKSolver.

human kidney microsomes = assay: Stability in human kidney microsome incubation system
[8] = tested on: normal rats (blood glucose); assay: Efficacy in normoglycemic rat model; type: in vivo, SD rats; settings: normal rats, 2 nmol/kg subcutaneous single dose
in vitro [9] = settings: human; remark: listed apart in the source

T3 sequence (P47871 26-477): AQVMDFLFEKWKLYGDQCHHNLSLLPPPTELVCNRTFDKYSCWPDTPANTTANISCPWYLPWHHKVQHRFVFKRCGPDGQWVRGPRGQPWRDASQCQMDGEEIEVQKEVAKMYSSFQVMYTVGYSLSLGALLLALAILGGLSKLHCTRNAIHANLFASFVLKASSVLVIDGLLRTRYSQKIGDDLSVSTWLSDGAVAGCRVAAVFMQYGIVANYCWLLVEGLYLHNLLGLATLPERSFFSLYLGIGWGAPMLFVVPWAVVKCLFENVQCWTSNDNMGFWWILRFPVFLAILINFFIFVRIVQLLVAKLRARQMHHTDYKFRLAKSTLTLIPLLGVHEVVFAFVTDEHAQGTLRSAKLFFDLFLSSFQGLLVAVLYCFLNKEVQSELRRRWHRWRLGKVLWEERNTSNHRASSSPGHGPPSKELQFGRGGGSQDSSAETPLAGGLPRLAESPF
T2 sequence (P43220 24-463): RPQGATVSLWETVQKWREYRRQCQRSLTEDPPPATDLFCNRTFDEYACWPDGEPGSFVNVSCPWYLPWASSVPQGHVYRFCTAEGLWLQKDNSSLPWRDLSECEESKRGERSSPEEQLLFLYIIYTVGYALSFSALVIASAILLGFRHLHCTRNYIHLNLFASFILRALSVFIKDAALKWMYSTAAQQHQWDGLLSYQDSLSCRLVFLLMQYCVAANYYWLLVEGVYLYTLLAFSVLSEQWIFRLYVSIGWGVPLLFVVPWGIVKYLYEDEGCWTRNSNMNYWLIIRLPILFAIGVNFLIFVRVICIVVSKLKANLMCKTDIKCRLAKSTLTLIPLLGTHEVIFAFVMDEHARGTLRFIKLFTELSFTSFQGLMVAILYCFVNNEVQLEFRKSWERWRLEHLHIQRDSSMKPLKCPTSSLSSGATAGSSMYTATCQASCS

## CC[C@H](C)[C@H](NC(=O)[C@H](CC(=O)O)NC(=O)[C@H](CC(C)C)NC(=O)[C@H](Cc1ccc(O)cc1)NC(=O)[C@H](CCCCN)NC(=O)[C@H](CO)NC(=O)[C@H](Cc1ccc(O)cc1)NC(=O)[C@H](CC(=O)O)NC(=O)[C@H](CO)NC(=O)[C@@H](NC(=O)[C@H](Cc1ccccc1)NC(=O)[C@@H](NC(=O)CNC(=O)[C@H](CCC(N)=O)NC(=O)[C@H](CO)NC(=O)[C@@H](N)Cc1c[nH]cn1)[C@@H](C)O)[C@@H](C)O)C(=O)NC(C)(C)C(=O)N[C@@H](CCCNC(=N)N)C(=O)N[C@@H](C)C(=O)N[C@@H](CCC(N)=O)C(=O)N[C@@H](CCC(=O)O)C(=O)N[C@@H](Cc1ccccc1)C(=O)N[C@H](C(=O)N[C@@H](CCC(N)=O)C(=O)N[C@@H](Cc1c[nH]c2ccccc12)C(=O)N[C@@H](CC(C)C)C(=O)N[C@@H](CCC(=O)O)C(=O)N[C@@H](CO)C(=O)N[C@H](C(=O)O)[C@@H](C)O)C(C)C [Compound 42] (H-HSQGTFTSDYSKYLDI[Aib]RAQEFVQWLEST-OH)
Human GIPR; CHO-K1/GIPR cell line, cAMP
  pEC50: < 7.00
Human GIPR; relative to native GIP
  GIPR % Activity relative to native GIP: <0.0700%
[1]
  solubility at 5 min: > 2490 µg/mL
Human GLP-1R
  GLP-1R % Activity relative to native GLP-1: 0.291%
[2]
  Relative activity: 207%

## CC(C)C[C@H](NC(=O)[C@H](Cc1c[nH]c2ccccc12)NC(=O)[C@H](CCCCN)NC(=O)[C@@H](NC(=O)[C@H](Cc1ccccc1)NC(=O)[C@H](CCC(=O)O)NC(=O)[C@H](CCC(=O)O)NC(=O)[C@H](C)NC(=O)[C@H](CCCNC(=N)N)NC(=O)[C@H](C)NC(=O)C(C)(C)NC(=O)[C@H](CC(=O)O)NC(=O)[C@H](CC(C)C)NC(=O)[C@H](Cc1ccc(O)cc1)NC(=O)[C@H](CCCCN)NC(=O)[C@H](CO)NC(=O)[C@H](Cc1ccc(O)cc1)NC(=O)[C@H](CC(=O)O)NC(=O)[C@H](CO)NC(=O)[C@@H](NC(=O)[C@H](Cc1ccccc1)NC(=O)[C@@H](NC(=O)CNC(=O)[C@H](CCC(N)=O)NC(=O)[C@H](CO)NC(=O)[C@@H](N)Cc1c[nH]cn1)[C@@H](C)O)[C@@H](C)O)C(C)C)C(=O)N[C@@H](CCC(=O)O)C(=O)N[C@@H](CO)C(=O)N[C@H](C(=O)O)[C@@H](C)O [Dasiglucagon, reference compound]
Human liver microsomes; With NADPH
  Percentage residues 0 min: 100.0%
Human liver microsomes; Without NADPH
  Percentage residues 0 min: 100.0%
  Percentage residues 15 min: 91.65%
  Percentage residues 30 min: 88.78%
  Percentage residues 60 min: 71.74%
  Percentage residues 120 min: 53.48%
Human liver microsomes; Without NADPH, 1 μM
  T½: 125.37 min
In vitro [3]; human liver microsomes
  remaining at 0.25 h, 1 μM: 91.8%
  remaining at 0.5 h, 1 μM: 91.6%
  remaining at 1 h, 1 μM: 81.1%
  remaining at 2 h, 1 μM: 59.2%
In vitro [3]; liver microsomes
  half-life at 1 μM: 162 min
[4]; 4° C.
  Purity Day 7: 98.66%
  Purity Day 14: 98.84%
  Purity Day 21: 99.85%
  Purity Day 28: 99.68%
[4]; 25° C.
  Purity Day 7: 98.07%
  Purity Day 14: 96.73%
  Purity Day 21: 96.68%
  Purity Day 28: 96.81%
[4]; day 0 (normalization)
  Purity Day 0: 100.00%
[5]; 1 μg/mL
  Hemolysis rate: −4.69%
[5]; 3 μg/mL
  Hemolysis rate: −4.77%
[5]; 10 μg/mL
  Hemolysis rate: −4.05%
[5]; 30 μg/mL
  Hemolysis rate: −5.23%
[5]; 100 μg/mL
  Hemolysis rate: −5.52%
[5]; 300 μg/mL
  Hemolysis rate: −4.63%
[5]; concentrations ranging from 1 to 300 μg/mL
  Hemolysis risk (in words): no significant risk of the hemolysis adverse effect was found
[6]
  Blood glucose 60 min: 7.00 mmol/L
  Blood glucose 75 min: 9.52 mmol/L
  Blood glucose 90 min: 8.43 mmol/L
  Blood glucose 105 min: 7.47 mmol/L
[7]; male SD rats, single SC injection, Dasiglucagon 5 mg/kg, 40 5.06 mg/kg
  AUClast/D: 260 h·ng/mL per mg/kg
[7]; male, SD, rat, sc
  Tmax: 10 min
[7]; male, SD, rat, sc, male SD rats, single SC injection, Dasiglucagon 5 mg/kg, 40 5.06 mg/kg
  half-life: 30.6 min
[7]; male, SD, rat, sc, read-out: Bioavailability (F %)
  bioavailability: 84.6%
[1]
  solubility at 5 min: > 3750 µg/mL
Human kidney microsomes; With NADPH
  Percentage residues 0 min: 100.0%
Human kidney microsomes; Without NADPH
  Percentage residues 0 min: 100.0%
  Percentage residues 15 min: 73.24%
  Percentage residues 30 min: 55.17%
  Percentage residues 60 min: 33.12%
  Percentage residues 120 min: 19.74%
Human kidney microsomes; Without NADPH, 1 μM
  T½: 51.98 min
[8]
  Blood glucose 15 min: 9.32 mmol/L
  Blood glucose 30 min: 7.73 mmol/L
  Blood glucose 45 min: 6.87 mmol/L
  Blood glucose 60 min: 6.08 mmol/L
In vitro [9]; human kidney microsomes
  remaining at 0.25 h, 1 μM: 63.5%
  remaining at 0.5 h, 1 μM: 52.9%
  remaining at 1 h, 1 μM: 36.6%
  remaining at 2 h, 1 μM: 17.7%
In vitro [9]; kidney microsomes
  half-life at 1 μM: 51.3 min
